Experimental data published in patent US10857180B2, “Pharmaceutical composition for improving health, cure abnormalities and degenerative disease, achieve anti-aging effect of therapy and therapeutic effect on mammals and method thereof” (priority 2014, dated 2020).

How the values were obtained:
[1] = tested on: renal cell carcinoma (PA) cells; test: Immunocytochemistry (H-Score) of PA cells; format: cell-based, rat
Description: When making the immunocytochemistry (ICC) assay, cells on microscope glasses (cytospin preparations) were fixed in the solution (methanol+acetone 1:1) for 2 hours at t 20° C. and incubated with 1% solution of bovine serum albumin (BSA) for 20 minutes. Then the monoclonal antibodies—CD44 (Diagnostic BioSystems), E-cadherin (ThermoScientific), N-cadherin (NeoMarker, BioLegend)—were applied for 60 minutes, after which the Poly Vue imaging system conjugated with peroxidase was used and the enzyme activity was detected using diaminobenzidine (ThermoScientific) as a substrate.
(§1) After the immunocytochemical reaction the preparations were washed with water and counterstained with hematoxylin-eosin (for 15-30 seconds). The results were analyzed by counting cells with expression (brown colored cells), using a light microscope and were assessed using the classical H-Score method: S=1×A+2×B+3×C, where S is the H-Score index giving a range of 0 (protein is not detected) to 300 (high-level expression in 100% of the cells); A is the percentage of weakly stained cells, B is the percentage of moderately stained cells and C is the percentage of strongly stained cells.

[2] = tested on: human colon adenocarcinoma (COLO 205 line) cells; test: Immunocytochemistry (H-Score) of COLO 205 cells; format: cell-based
Description: (§2) When making the immunocytochemistry (ICC) assay, cells on microscope glasses (cytospin preparations) were fixed in the solution (methanol+acetone 1:1) for 2 hours at t 20° C. and incubated with 1% solution of bovine serum albumin (BSA) for 20 minutes. Then the monoclonal antibodies-CD44 (Diagnostic BioSystems), E-cadherin (ThermoScientific), N-cadherin (NeoMarker, BioLegend), SLUG (GeneTex)—were applied for the time period specified by the manufacturer (30 to 60 minutes), after which the Poly Vue imaging system conjugated with peroxidase was used and the enzyme activity was detected using diaminobenzidine (ThermoScientific) as a substrate. After the immunocytochemical reaction the preparations were washed with water and counterstained with hematoxylin-eosin (for 15 to 30 seconds).
as §1, with “The” for “After the immunocytochemical reaction the preparations were washed with water and counterstained with hematoxylin-eosin (for 15-30 seconds). The”, “cells)” for “cells),”, “microscope,” for “microscope”, “staining” for “stained”

COLO 205 cell line = test: Cytogenetic analysis (micronucleus test) of COLO 205 cells; format: cell-based, human; conditions: ^39K 2 mg/ml, ^64Zn 20 mcg/ml, ^24Mg 4 mg/ml
Description: Advanced Micronucleus Test was used to assess the cytogenetic characteristics of cells after their exposure to the action of the test group of components.
Cytogenetic analysis was carried out after 48 hours of exposure of the cells to the action of the components. For cytogenetic analysis, the cells were incubated in hypotonic solution KCl (0.54%) (Reahim, Ukraine) for 40 minutes at +37° C. Then they were fixed with a mixture of methyl alcohol (Reahim, Ukraine) and acetic acid (Himlaborreaktiv, Ukraine) (3:1) with replacing the fixative three times. All fixed cell suspensions were applied on cold wet glasses, dried and stained with Giemsa stain (Sigma, Germany). The cytogenetic preparations were analyzed using a binocular microscope Sari Zeiss, AxioStarPlus (Germany) with magnification of x 1000. The following quantitative characteristics and stages of cell division were analyzed on the preparations: mitoses, cells with premature chromosome condensation (PCC), cells with micronuclei (CMN), apoptotic cells and cells with nuclear protrusions (protrusions) which were calculated for 1000 cells and expressed in per mille (%).

[3] = tested on: human breast cancer (MCF-7 line) cells; test: Immunocytochemistry (H-Score) of MCF-7 cells; format: cell-based
Description: as §2
as §1, with “The” for “After the immunocytochemical reaction the preparations were washed with water and counterstained with hematoxylin-eosin (for 15-30 seconds). The”, “cells)” for “cells),”, “microscope,” for “microscope”, “staining” for “stained”

[4] = tested on: Burkitt lymphoma (Namalwa line) cells; test: Immunocytochemical analysis (H-Score) of Namalwa cells; format: cell-based, human; conditions: for amount of N-cadherin-positive cells: exception ^39K 2 mg/ml and ^24Mg 2 mg/ml
From the text: However, articles about an important role of EMT in the study of lymphomas and leukemias as well have started coming out recently, which is an interesting stage in the research into the tumor process as a whole, since these tumors radically differ from “usual solid neoplasias” in their histogenesis and, accordingly, in their phenotypic characteristics. Thus, such comprehensive research into adhesion proteins and cell cytoskeleton in the tumor cells of Burkitt lymphoma and acute promyelocyte leukemia after the action of the group of components under study is a relevant and contemporary attempt of a deeper analysis of the modification of a cell phenotype of tumor cells in order to assess changes in the degree of their malignancy. Materials and methods for leukemia cell lines HL-60 and Namalva and cell culture conditions will now be described. […] The first plate was for coloring cells with trypan blue and the second one was for the MTT assay.
Initial concentrations of the components.
After preparation of the corresponding concentrations of the components, they were introduced into appropriate wells of the plate in which HL-60 or Namalva cell were in complete medium. The volume of the culture medium with cells was 100 mcl per well and the concentration of cells in the suspension was 3×10^5 cells/ml (3×10^6/plate). After the components were placed into the wells, the final concentration (component+cells in the suspension) became smaller and corresponded to the values given in the Table of Concentration Characteristics.
After the incubation the medium was removed from the wells and the formed tetraformazan crystals were dissolved in 50 mcl of dimethylsulphoxide (Applichem, Germany). The results were fixed using a multi-well spectrophotometer with an excitation wave length of 540 nm. The percent of inhibition of cell viability was calculated using the following formula: IR=(1−A 540 (experiment)/A540 (control))×100%. In carrying out the immunocytochemical (ICC) assay, cells on microscope glasses (cytospin preparations) were fixed in the solution (methanol+acetone (1:1)) for 2 hours at t−20° C. and then incubated with a 1% solution of bovine serum albumin (BSA) for 20 minutes.
Then such monoclonal antibodies as CD44, N-cadherin, ICAM and IgM were applied for the period of time specified in the manufacturer's instructions (30 to 60 minute time intervals), after which Poly Vue imaging system conjugated with peroxidase was used and the enzyme activity was detected using diaminobenzidine (ThermoScientific) as a substrate. After the immunocytochemical reaction, the preparations were rinsed with water and counterstained with hematoxylin and eosin for 15 to 30 seconds. The results were analyzed by a quantitative estimation of cells with the marker expression (increased brown color of cells corresponded to a higher degree of expression of the marker) using a light microscope and assessed using the classical H-Score method: S=1×A+2×B+3×C, where S is the H-Score index the values of which are within the scope of 0 (protein is not detectable) to 300 (high-level expression in 100% of the cells), A is a percentage of weakly stained cells, B is the percentage of moderately stained cells, and C the percentage of strongly stained cells.

A-549 cell line = test: Scratch assay, A-549 cells; conditions: for time of restoration of the cell monolayer: dose not stated, 24 hours in the control; for restoration of the cell monolayer after 72 hours: ^64Zn 20 and 30 mcg/ml, ^39K 2 mg/ml, control restored after 24 hours

Compound | number of E-cadherin-positive cells [2] | slug transcription factor expression [2] | tumor proliferation (cell division) at the stage of G2/M (COLO 205 cell line) | number of Slug-positive cells [3] | IgM marker expression level [4] | amount of N-cadherin-positive cells [4] | time of restoration of the cell monolayer (A-549 cell line) | expression of CD44 marker [4] | restoration of the cell monolayer after 72 hours (A-549 cell line) | further results
O=S(=O)([O-])[O-].[24Mg+2] [^24Mg] | increasing the number | in the cytoplasm and in the nucleus | inhibition of tumor proliferation | insignificantly influenced | decrease in the expression level | in most cases increased | 72 h |  |  | number of CD44-positive cells ([1]; ^24Mg 2 mg/ml): did not differ from that of control cells; number of CD44-positive cells ([1]; ^24Mg 3.5 mg/ml): increase significantly; number of E-cadherin-positive cells ([1]; ^24Mg in 2 doses): increase in the number; number of cells expressing N-cadherin ([1]; ^24Mg in 2 doses): slight increase
O=S(=O)([O-])[O-].[64Zn+2] [^64Zn] | significantly increased | in the cytoplasm and in the nucleus | inhibition of tumor proliferation | insignificantly influenced | decrease in the expression level | in most cases increased | 72 h | significant inhibition | incomplete | CD44 marker positive cells, H-Score scale ([1]; 3.2 mcg/ml): 126 units; N-cadherin positive cells ([1]; ^64Zn 0.128 mcg/ml): slight increase; number of E-cadherin-positive cells ([1]; ^64Zn 0.128 mcg/ml): increased number; N-cadherin-positive cells ([1]; ^64Zn 3.2 mcg/ml): substantial increase; number of E-cadherin-positive cells ([1]; ^64Zn 3.2 mcg/ml): decrease in the number; number of ICAM-positive cells, H-Score method ([4]; ^64Zn as sulfate 5 mcg/ml): 210
[39K+].[Cl-] [^39K] | significantly increased | increased its expression in the cytoplasm | inhibition of tumor proliferation | insignificantly influenced | decrease in the expression level | in most cases increased | 72 h | significant inhibition | incomplete | number of E-cadherin-positive cells ([1]; ^39K 0.4 mg/ml): significantly increased; number of E-cadherin-positive cells ([1]; ^39K 2 mg/ml): significantly reduced; number of CD44-positive cells ([1]; ^39K both doses): significantly increased; N-cadherin ([1]; ^39K dose D2): almost complete inhibition; E-cadherin, H-Score scale ([2]; 87 in the control): 184
